# Laboratory results published in PMC9021288 (Nature Communications, 2022).
# Several values for one entry are separate records, joined by “and”; a condition that tells them apart may be missing. Identical values can stand only once. Entries after “also recorded” stand apart in the source; their conditions may differ.
# Columns and labels:
# [1] = UV scan for phototoxicity; assay type: physicochemical
# [2] = test system: P. falciparum 3D7 trophozoite-infected RBCs, CoA pathway metabolites; assay: Metabolomics of treated infected RBCs (LC/MS); assay type: cell-based, Plasmodium falciparum
# Method: P. falciparum metabolomics analysis was performed by LC/MS as previously described. Briefly, parasite cultures were tightly synchronized at the ring stage one cycle prior to extraction. Trophozoite cultures at 5-10% parasitemia were purified to >90% parasitemia by magnetic purification. Parasites were counted using a hemocytometer, aliquoted to 1 × 10^8 cells per condition in 5 ml medium and then placed into an incubator for 1 h to allow them to reach a metabolically stable state. […] Blank processing samples were also quenched in the same manner to assess background metabolite levels. The samples were centrifuged, the supernatant was collected in a new tube, dried using a nitrogen gas drying rack and stored at -80 °C until they were run on the LC/MS platform.
# For each analytical run, a pooled sample was generated by combining equivalent volumes of each parasite sample to assess metabolite detection and run at the beginning, middle, and end of each analytical batch to detect any possible time-dependent sensitivity changes. The full metabolomics datasets are publicly available on the Metabolomics Workbench database under ST001985[76].
# [3] = test system: P. falciparum NF54 sporozoites / liver stages; assay: Liver-stage development in human primary hepatocytes; assay type: cell-based, Plasmodium falciparum; parameters: infected hepatocytes (Rep1, Rep2): unit not given here
# Method: To assess parasite development in hepatocytes, cryopreserved human primary hepatocytes (Tebu-Bio lot: HC10-10) were thawed according to the manufacturer’s protocol and seeded (50,000 cells per well) in collagen-coated 96-well plates (Greiner). Cells were cultured at 37 °C in 5% CO2 and the medium was refreshed after 3 h and 24 h. Salivary glands from Anopheles stephensi mosquitoes were dissected to obtain NF54 sporozoites that were added (60,000 per well) to hepatocytes 48 h post-thawing. Plates were spun down and sporozoites were incubated with hepatocytes for 3 h. Subsequently, sporozoites were aspirated and compounds diluted in hepatocyte medium, were added to the hepatocytes (0.1% DMSO final concentration). Medium-containing compounds was refreshed daily for four days. Hepatocytes were fixed with ice-cold methanol and samples were blocked with 10% fetal bovine serum (FBS) in PBS. Samples were incubated with rabbit anti-HSP70 (1:75, StressMarq) in 10% FBS for 1-2 h followed by incubation with secondary goat anti-rabbit AlexaFluor 594 antibody (1:1000, Invitrogen) in 10% FBS for 30 min. Samples were washed with PBS containing 0.05% Tween 20 between different steps. Cells were imaged on the Biotek Cytation and images were analyzed automatically using FIJI software.
# panel of human enzymes = assay: Off-target enzyme and uptake assays (Eurofins CEREP); assay type: biochemical; settings: for % Inhibition of Control Values: Rep1, Rep2, Mean
# Renal excretion in rats = assay type: in vivo, rat
# Method: A blood sample from the saphenous vein was collected into heparinized capillary tubes at multiple intervals between 0.25 and 24 h after dosing. Subsequently, samples were spun down at 1640 g for 5-10 min at 4 °C within 30 min after collection and plasma was collected. […] Urine was collected following an intravenous dose in both rat and dog, allowing renal clearance to be estimated. Human renal clearance was estimated from dog renal clearance as previously described[40] and other human PK parameters were predicted using allometric scaling and/or in vitro clearance data. PK parameters were calculated by naïve pooled approach using WinNonLin software (Phoenix, version 6.3).
# [4] = 8-day Dose Range Finding (DRF) rat study; assay type: in vivo, Wistar Han rats
# Source text: See the summary of the study design in Supplementary Table 31. Nine-week-old Wistar (Crl:WI (Han)) rats were obtained from Charles River Laboratories (Domaine des Oncins, Saint-Germain-Nuelles, France). […] Animals were examined daily for any altered clinical signs, body weights, and food consumption. Blood samples were taken at different timepoints after the test item administration, and toxicokinetic exposure assessed under the defined experimental conditions and analyzed using Phoenix (version 6.4 and 1.4) (Supplementary Table 32). Measurements included hematology and clinical chemistry measurements. Animals were euthanized and necropsied at the end of the dosing period. At necropsy, major organ systems and tissues were collected and weighed and then examined for gross lesions as well as for microscopic changes.
# [5] = test system: mouse primary hepatocytes; assay: Hepatocyte stability, mouse; assay type: in vitro ADME
# [6] = test system: P. falciparum Dd2-B2 and NF54-HGL; assay: In vitro selection of drug-resistant parasites; assay type: cell-based, Plasmodium falciparum
# Method: Drug media was changed daily until cultures were cleared and every other day subsequently. […] Recrudescence was monitored by flow cytometry on an Accuri C6 (BD Biosciences) using BD C6 Plus for 60 days using SYBR Green and MitoTracker Deep Red FM (Life Technologies) as nuclear stain and vital dye, respectively, and data were analyzed using FlowJo (Supplementary Fig. 23). […] Whole-genome sequencing was performed to test for single nucleotide polymorphisms (SNPs) or copy number variations.
compound,measurement,setting,value
C[C@@H](CNC(=O)[C@H](O)C(C)(C)CO)NC(=O)c1cc(F)c(F)cc1F [MMV693183],UV absorbance,[1],No absorbance >290 nm; also recorded: no detectable absorption above 290 nm
same,Fold change 4'P-Pan,[2]; 24 nM,0.6372 and 0.7412
same,Fold change Ac-CoA,[2]; 24 nM,0.5886 and 0.6667
same,Fold change CoA,[2]; 24 nM,1.122
same,Fold change Pan,[2]; 24 nM,0.8146 and 0.8416
same,Fold change 4'P-Pan,[2]; 240 nM,0.3498 and 0.3568
same,Fold change CoA,[2]; 240 nM,1.064
same,Fold change Pan,[2]; 240 nM,1.253 and 0.7224
same,effect on endogenous metabolites,[2]; dose-dependent,reduced acetyl-CoA and 4-phosphopantothenate levels
same,efficacy against liver stages,[3],not efficacious against liver stages
same,"infected hepatocytes (Rep1, Rep2)",[3]; log concentration (M) -5,0.0299 and 0.0223
same,"infected hepatocytes (Rep1, Rep2)",[3]; log concentration (M) -5.5,0.0585 and 0.0696
same,"infected hepatocytes (Rep1, Rep2)",[3]; log concentration (M) -7,0.3352 and 0.4993
same,"infected hepatocytes (Rep1, Rep2)",[3]; log concentration (M) -7.5,0.3658 and 0.5068
same,"induction, GABA transaminase",panel of human enzymes; 10 µM,30.7%
same,"inhibition, HDAC11",panel of human enzymes; 10 µM,36.9%
same,"inhibition/induction, all other enzyme and uptake assays",panel of human enzymes; 10 µM,less than 25%
same,% Inhibition of Control Values,panel of human enzymes; ATPase (Na+/K+),-2.75% and -1.9% and -3.6%
same,% Inhibition of Control Values,panel of human enzymes; CENP-E (h),-0.4% and -0.6% and -0.2%
same,% Inhibition of Control Values,panel of human enzymes; COX1(h),-4.65% and -5.4% and -3.9%
same,% Inhibition of Control Values,panel of human enzymes; Eg5 (h),-5.55% and -2% and -9.1%
same,% Inhibition of Control Values,panel of human enzymes; GABA transaminase,-30.7% and -29.5% and -31.9%
same,% Inhibition of Control Values,panel of human enzymes; HDAC6 (h),-14.7% and -18.7% and -10.7%
same,% Inhibition of Control Values,panel of human enzymes; HDAC11 (h),36.9% and 32.5% and 41.3%
same,% Inhibition of Control Values,panel of human enzymes; MAO-A (h),1.7% and -0.1% and 3.5%
same,% Inhibition of Control Values,panel of human enzymes; MAO-B (h) recombinant enzyme,-1.9%
same,% Inhibition of Control Values,panel of human enzymes; PDE1B (h),0.9% and -2.7% and 4.5%
same,% Inhibition of Control Values,panel of human enzymes; PDE2A1 (h),-1% and -4.3% and 2.3%
same,% Inhibition of Control Values,panel of human enzymes; PDE3A (h),1.1% and -1.7% and 3.9%
same,% Inhibition of Control Values,panel of human enzymes; PDE5 (h) (non-selective),-3.55% and -4.2% and -2.9%
same,% Inhibition of Control Values,panel of human enzymes; acetylcholinesterase (h),5.45% and 8.7% and 2.2%
same,% Inhibition of Control Values,panel of human enzymes; phosphatase 1B (h) (PTP1B),10.8% and 11.2% and 10.4%
same,% Inhibition of Control Values,panel of human enzymes; phosphatase CDC25A (h),-0.35% and -5% and 4.3%
same,% Inhibition of Control Values,panel of human enzymes; sirtuin 1 (h) (inhibitor effect),-1.45% and -1.9% and -1%
same,% Inhibition of Control Values,panel of human enzymes; tyrosine hydroxylase,-0.5% and 2.4% and -3.4%
same,Urine fraction,Renal excretion in rats; Mean,0.36
same,Observed renal plasma clearance,Renal excretion in rats; Rat,7.7 mL/min/kg
same,Concentration corrected for dilution,"Renal excretion in rats; rat urine after IV dosing, 400x diluted samples, individual rats R4, R5, R6",27920.0 ng/mL and 106400.0 ng/mL and 15600.0 ng/mL
same,drug eliminated in urine,"Renal excretion in rats; rats, i.v. 3 mg/kg",36-40%
same,cumulative exposure vs predicted human efficacious exposure,[4]; 30 mg/kg/day group,> 30 fold
same,Liver weight,[4]; 10 and 30 mg/kg/day,Liver weight was unchanged
same,liver histology,[4]; 10 and 30 mg/kg/day,absence of liver microscopic findings
same,Liver weight,"[4]; DRF 10 mg/kg/day, Females",6.6517 g
same,Liver weight,"[4]; DRF 10 mg/kg/day, Males",9.7817 g
same,Liver weight,"[4]; DRF 30 mg/kg/day, Females (two groups)",6.4437 g and 7.2357 g
same,Liver weight,"[4]; DRF 30 mg/kg/day, Males (two groups)",10.7203 g and 9.7543 g
same,Liver weight,"[4]; DRF study, females, 10 mg/kg/day, individual animals",6.951 g and 7.042 g and 5.962 g
same,Liver weight,"[4]; DRF study, females, 30 mg/kg/day (first column headed 30), individual animals, 30 mg/kg/day",7.24 g and 5.849 g and 6.242 g
same,Liver weight,"[4]; DRF study, females, 30 mg/kg/day (second column headed 30), individual animals, 30 mg/kg/day",7.466 g and 7.43 g and 6.811 g
same,Liver weight,"[4]; DRF study, males, 10 mg/kg/day, individual animals",9.171 g and 9.562 g and 10.612 g
same,Liver weight,"[4]; DRF study, males, 30 mg/kg/day (first column headed 30), individual animals, 30 mg/kg/day",10.621 g and 11.894 g and 9.646 g
same,Liver weight,"[4]; DRF study, males, 30 mg/kg/day (second column headed 30), individual animals, 30 mg/kg/day",10.364 g and 10.082 g and 8.817 g
same,NOEL,[4]; eight days,30 mg/kg/day
same,decrease in systemic exposure day 7 vs day 1,[4]; predominantly males at 30 mg/kg/day,up to 4 fold
same,Compound Remaining (% of 0 min),[5]; 0 min,100%
same,Compound Remaining (% of 0 min),[5]; 5 min,114%
same,Compound Remaining (% of 0 min),[5]; 10 min,109%
same,Compound Remaining (% of 0 min),[5]; 20 min,103%
same,Compound Remaining (% of 0 min),[5]; 40 min,101%
same,Compound Remaining (% of 0 min),[5]; 60 min,105%
same,minimum inoculum for resistance development,[6],10^9
same,Frequency (# of parasite positive flasks or wells),"[6]; 1x10^5 Dd2-B2, 15 nM",0/24
same,Frequency (# of parasite positive flasks or wells),"[6]; 1x10^7 Dd2-B2, 15-22 nM / 10.5-14 nM",0/3
same,Frequency (# of parasite positive flasks or wells),"[6]; 1x10^8 Dd2-B2, 10.5-14 nM",0/3
same,Frequency (# of parasite positive flasks or wells),"[6]; 1x10^9 Dd2-B2, 12-27 nM",3/3
same,Frequency (# of parasite positive flasks or wells),"[6]; NF54, 7 nM",2/2
